Source: US11279761B2, “Anti-PD-L1 combinations for treating tumors” (BIRDIE BIOPHARMACEUTICALS, INC., priority 2014, dated 2022)

What was measured:
[1] = system: C26 tumor; test: Combinational efficacy of anti-PD-L1 and R848 in PD-L1 expressed C26 tumor model (Study No. R-BDB001-0008); type: in vivo; details: C26 s.c. in BALB/c mice; single agent, 3-week period
Experimental: The objective of this study was to determine the single or combinational efficacy of R848 and anti-PD-L1 monoclonal antibody in the C26 tumor model in immune-competent mouse. C26 cells were inoculated by subcutaneous injection into the right flank of BALB/c mice on Day 0. Tumors were monitored until they reached a mean tumor volume of between 60 and 100 mm3, inclusive. Mice were administered, over a 3-week period, 10 mg/kg IV (via tail vein) of rat anti-mouse PD-L1 monoclonal antibody alone twice weekly, 0.08 mg/kg of R848 alone once weekly, or a combination of anti-PD-L1 antibody and R848.
The differences in tumor inhibition by the combination treatment compared to that of each component is shown graphically (FIG. 6)) and was highly significant (p=0.0029, anti-PDL1 and R848 combined versus R848 alone; p=0.0074, anti-PDL1 and R848 combined versus anti-PDL1 alone).

[2] = system: mouse colon adenocarcinoma 26 (C26) tumor; test: Combinational efficacy of R848 and anti-PD-1 antibody in PD-L1 expressed C26 tumor model; type: in vivo; details: C26 s.c. in BALB/c mice; single agent, three-week period
Experimental: The objective of this study was to determine the single or combinational efficacy of R848 and anti-PD-1 monoclonal antibody in the mouse colon adenocarcinoma 26 (C26) tumor model in immune-competent mouse. C26 cells were inoculated by subcutaneous injection into the right flank of BALB/c mice on Day 0. Tumors were monitored until they reached a mean tumor volume of between 60 and 100 mm3. Mice were then administered over a three-week period 10 mg/kg IV (via tail vein) of rat anti-mouse PD-1 monoclonal antibody alone twice weekly, 0.08 mg/kg of R848 alone once weekly, or a combination of anti-PD-1 antibody and R848. Tumor volumes were recorded twice weekly over the course of the study and the mice were observed regularly. Tumor-bearing mice (treatment, control) were sacrificed at Day 26 or if they became moribund before the tumor volume reached 2000 mm3. […] The differences in tumor inhibition by the combination treatment compared to that of each component is shown graphically (FIG. 5) and was highly significant (p=0.0002, anti-PD-1 and R848 combined versus R848 alone; p=0.0063 anti-PD-1 and R848 combined versus anti-PD-1 alone).

## CCOCc1nc2c(N)nc3ccccc3c2n1CC(C)(C)O [R848, 4-amino-2-(ethoxymethyl)-a,a-di-methyl-1H-imidazo[4,5-c]quinoline-1-ethanol]
[1]
  inhibition in tumor growth: Limited inhibition
[2]
  inhibition in tumor growth: Limited inhibition
